The text below walks through data of paper PMC10698726 (Molecular Pharmaceutics, 2023).

Read-outs that look alike come from different tables or passages of the source.

The target in data set [1] is T1, OCT2 (Homo sapiens, UniProt O15244).
T1 sequence (O15244 1-555): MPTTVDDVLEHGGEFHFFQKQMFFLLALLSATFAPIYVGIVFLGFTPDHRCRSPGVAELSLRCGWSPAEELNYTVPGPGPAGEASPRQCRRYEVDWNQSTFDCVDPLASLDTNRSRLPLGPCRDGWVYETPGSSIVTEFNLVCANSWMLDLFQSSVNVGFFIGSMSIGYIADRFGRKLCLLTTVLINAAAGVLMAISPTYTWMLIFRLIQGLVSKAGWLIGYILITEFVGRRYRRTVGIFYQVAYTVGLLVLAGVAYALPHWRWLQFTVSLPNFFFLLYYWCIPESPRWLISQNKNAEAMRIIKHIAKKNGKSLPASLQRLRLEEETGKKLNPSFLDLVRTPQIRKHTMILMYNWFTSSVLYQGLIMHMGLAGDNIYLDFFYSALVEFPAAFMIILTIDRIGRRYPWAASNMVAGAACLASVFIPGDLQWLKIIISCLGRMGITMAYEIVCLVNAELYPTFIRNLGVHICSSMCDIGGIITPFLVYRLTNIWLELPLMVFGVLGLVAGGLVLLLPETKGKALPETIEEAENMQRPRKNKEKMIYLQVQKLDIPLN
Kind of data set: Inhibition of model substrate uptake in OCT2-overexpressing HEK293 cells. To be noted: for IC50: IC50 [μM], OCT2, Table 1; for (S,S)-Ethambutol inhibition [%] / ASP+ inhibition [%] / N-Ethyllidocaine inhibition [%] / inhibition at 5 min, 20 μM: OCT2, 20 μM inhibitor, 5 min.

For data set [2] the following is noted: oral administration, cited from earlier work.
For data set [3], the target named is T2, OCT1 (Homo sapiens, UniProt O15245).
T2 sequence (O15245 1-554): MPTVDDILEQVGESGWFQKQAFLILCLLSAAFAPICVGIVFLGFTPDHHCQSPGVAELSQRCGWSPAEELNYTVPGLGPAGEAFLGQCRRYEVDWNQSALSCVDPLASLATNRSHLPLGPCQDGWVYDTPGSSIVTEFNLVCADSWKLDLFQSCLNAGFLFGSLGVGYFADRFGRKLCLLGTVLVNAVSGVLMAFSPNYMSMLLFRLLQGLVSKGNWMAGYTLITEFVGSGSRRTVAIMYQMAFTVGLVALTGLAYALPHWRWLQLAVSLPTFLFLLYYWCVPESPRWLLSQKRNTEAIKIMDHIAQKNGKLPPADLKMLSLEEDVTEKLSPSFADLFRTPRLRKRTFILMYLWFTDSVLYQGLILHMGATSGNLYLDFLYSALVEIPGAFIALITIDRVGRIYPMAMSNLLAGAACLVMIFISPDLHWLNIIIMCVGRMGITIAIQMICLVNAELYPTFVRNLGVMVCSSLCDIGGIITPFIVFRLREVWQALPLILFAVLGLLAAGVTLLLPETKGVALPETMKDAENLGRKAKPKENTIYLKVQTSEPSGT
Kind of data set: Inhibition of model substrate uptake in OCT1-overexpressing HEK293 cells. Format: cell-based. Also on record: expressed in transfected cells; host or cells: HEK293. To be noted: OCT1, 20 μM inhibitor, 5 min; for inhibition at 5 min, 20 μM: human, OCT1-overexpressing HEK293 cells. On the procedure:
(§1) Koepsell and Gorbulev (University of Würzburg, Germany).
Fluorescence quantification was performed in technical duplicates.

Data set [4] concerns the target T3, OCT3 (Homo sapiens, UniProt O75751).
T3 construct: expressed in transfected cells; host or cells: HEK293
T3 sequence (O75751 1-556): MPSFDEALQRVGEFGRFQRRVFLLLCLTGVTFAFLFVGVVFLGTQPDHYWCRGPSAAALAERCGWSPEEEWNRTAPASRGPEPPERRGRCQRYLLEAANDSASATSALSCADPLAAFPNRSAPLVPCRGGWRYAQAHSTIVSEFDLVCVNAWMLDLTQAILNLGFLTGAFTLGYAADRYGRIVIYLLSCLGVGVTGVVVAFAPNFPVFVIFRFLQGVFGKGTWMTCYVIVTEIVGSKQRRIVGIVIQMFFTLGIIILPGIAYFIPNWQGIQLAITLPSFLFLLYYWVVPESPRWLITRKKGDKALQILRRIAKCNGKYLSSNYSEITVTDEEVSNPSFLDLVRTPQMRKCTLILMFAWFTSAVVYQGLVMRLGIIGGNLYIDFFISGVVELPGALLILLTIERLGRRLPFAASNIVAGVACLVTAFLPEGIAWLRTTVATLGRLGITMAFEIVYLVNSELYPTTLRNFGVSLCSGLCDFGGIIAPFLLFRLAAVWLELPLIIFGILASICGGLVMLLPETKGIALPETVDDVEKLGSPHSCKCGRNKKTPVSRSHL
Kind of data set: Inhibition of model substrate uptake in OCT3-overexpressing HEK293 cells. The format is cell-based. To be noted: 20 μM inhibitor, 5 min. A digest of the protocol:
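Transporter-overexpressing HEK293 cells were incubated 5 min in HBSS+ with 2 μM model substrate, with or without 20 μM inhibitor or increasing inhibitor concentrations. Uptake was read as ASP^+ fluorescence or by LC–MS/MS, with empty-vector uptake subtracted. IC50 came from a Hill fit of activity versus log concentration.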

The target of data set [5] is T4, DAT (Homo sapiens, UniProt Q01959).
T4 construct: expressed in transfected cells; host or cells: HEK293
As to the kind of experiment: Concentration-dependent MPP+ uptake, DAT-overexpressing HEK293 cells. The format is in vitro ADME. To be noted: this study. On the procedure: as §1
(§2) Prior to inhibition studies, the used model substrates were validated in concentration-dependent uptake experiments if no literature data were available (Table S2 and Figures S2 and S3). Thereby, we ensured that the model substrate concentration used in the subsequent inhibition experiments was sufficiently below the Km value of its uptake kinetics. […] On the day of the experiment, the cells were washed once with prewarmed to 37 °C HBSS (Thermo Fisher Scientific, Darmstadt, Germany) supplemented with 10 mM HEPES and pH adjusted to 7.4 (Sigma-Aldrich)—hereafter termed HBSS+. For concentration-dependent experiments, the cells were incubated with increasing substrate concentrations for 2 min. Uptake was terminated by adding ice-cold HBSS+. Afterward, the cells were washed twice with ice-cold HBSS+, and cell lysis was done with 80% (v/v) acetonitrile (LGC Standards, Wesel, Germany) to which an internal standard for eventual LC–MS/MS analysis had been added. Intracellularly accumulated substrates were then quantified by LC–MS/MS analysis, and calibration was performed with known concentrations of the respective substances. All uptake data were normalized to the number of seeded cells by measuring the total protein content in radioimmunoprecipitation assay buffer-lysed cells in a bicinchoninic acid assay.[29]

For data set [6], the target named is T5, SERT (Homo sapiens, UniProt P31645).
T5 construct: expressed in transfected cells; host or cells: HEK293
Kind of data set: Concentration-dependent MPP+ uptake, SERT-overexpressing HEK293 cells. Format: in vitro ADME. To be noted: this study. The protocol:
as §1, §2

Data set [7] addresses T6, NET (Homo sapiens, UniProt P23975).
T6 construct: expressed in transfected cells; host or cells: HEK293
Kind of data set: Concentration-dependent MPP+ uptake, NET-overexpressing HEK293 cells. Format: in vitro ADME. To be noted: this study. On the procedure: as §1, §2

Substrate in data set [8]: CCC(CO)NCCNC(CC)CO
As to the kind of experiment: cells, lysate or membranes named. To be noted: other: OCT1, 2 min uptake, this study.

The mark [9] stands for this setting: amisulpride, single dose (50 mg).
Where [10] appears, read: pH 7.4, probe (S,S)-ethambutol (2 μM), (S,S)-Ethambutol inhibition [%], 2 μM (S,S)-ethambutol.
Setting [11] is: pH 7.4, probe ASP+ (2 μM), 2 μM ASP+, mean of three experiments, read-out: ASP+ inhibition [%].
[12] abbreviates: pH 7.4, probe sumatriptan (2 μM), 2 μM sumatriptan, read-out: Sumatriptan inhibition [%].
Setting [13] is: HEK293, 5 min, read-out: (S)-Zolmitriptan inhibition [%], OCT3, 2 μM (S)-zolmitriptan.
Setting [14] is: HEK293, 5 min, read-out: (S,S)-Ethambutol inhibition [%], OCT3, 2 μM (S,S)-ethambutol.
The mark [15] stands for this setting: HEK293, OCT3, 2 μM ASP+, read-out: ASP+ inhibition [%].
[16] abbreviates: human, OCT2-overexpressing HEK293 cells, pH 7.4, probe (S,S)-ethambutol (2 μM), (S,S)-Ethambutol inhibition [%], 2 μM (S,S)-ethambutol.
Where [17] appears, read: human, OCT2-overexpressing HEK293 cells, pH 7.4, probe ASP+ (2 μM), ASP+ inhibition [%], 2 μM ASP+.
Setting [18] is: human, OCT2-overexpressing HEK293 cells, pH 7.4, probe N-ethyllidocaine (2 μM), N-Ethyllidocaine inhibition [%], 2 μM N-ethyllidocaine.
Setting [19] is: citalopram, multiple doses (40 mg, once daily for 21 d).

T5 sequence (P31645 whole entry): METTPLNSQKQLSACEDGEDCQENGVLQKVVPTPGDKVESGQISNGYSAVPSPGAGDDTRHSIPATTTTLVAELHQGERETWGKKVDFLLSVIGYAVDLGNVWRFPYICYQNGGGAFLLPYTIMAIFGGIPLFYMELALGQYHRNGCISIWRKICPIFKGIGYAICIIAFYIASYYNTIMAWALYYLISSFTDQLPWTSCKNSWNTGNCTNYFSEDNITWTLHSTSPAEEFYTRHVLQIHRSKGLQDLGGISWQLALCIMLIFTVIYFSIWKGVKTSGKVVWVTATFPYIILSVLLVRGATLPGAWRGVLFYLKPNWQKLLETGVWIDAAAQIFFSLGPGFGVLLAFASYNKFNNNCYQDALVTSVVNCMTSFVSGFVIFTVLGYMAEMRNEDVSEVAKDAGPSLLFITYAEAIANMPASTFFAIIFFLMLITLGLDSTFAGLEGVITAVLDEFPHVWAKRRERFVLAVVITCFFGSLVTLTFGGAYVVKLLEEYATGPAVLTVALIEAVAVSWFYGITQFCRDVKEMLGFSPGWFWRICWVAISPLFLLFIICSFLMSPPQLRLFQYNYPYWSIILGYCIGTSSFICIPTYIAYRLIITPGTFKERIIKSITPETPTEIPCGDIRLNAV
T6 sequence (P23975 whole entry): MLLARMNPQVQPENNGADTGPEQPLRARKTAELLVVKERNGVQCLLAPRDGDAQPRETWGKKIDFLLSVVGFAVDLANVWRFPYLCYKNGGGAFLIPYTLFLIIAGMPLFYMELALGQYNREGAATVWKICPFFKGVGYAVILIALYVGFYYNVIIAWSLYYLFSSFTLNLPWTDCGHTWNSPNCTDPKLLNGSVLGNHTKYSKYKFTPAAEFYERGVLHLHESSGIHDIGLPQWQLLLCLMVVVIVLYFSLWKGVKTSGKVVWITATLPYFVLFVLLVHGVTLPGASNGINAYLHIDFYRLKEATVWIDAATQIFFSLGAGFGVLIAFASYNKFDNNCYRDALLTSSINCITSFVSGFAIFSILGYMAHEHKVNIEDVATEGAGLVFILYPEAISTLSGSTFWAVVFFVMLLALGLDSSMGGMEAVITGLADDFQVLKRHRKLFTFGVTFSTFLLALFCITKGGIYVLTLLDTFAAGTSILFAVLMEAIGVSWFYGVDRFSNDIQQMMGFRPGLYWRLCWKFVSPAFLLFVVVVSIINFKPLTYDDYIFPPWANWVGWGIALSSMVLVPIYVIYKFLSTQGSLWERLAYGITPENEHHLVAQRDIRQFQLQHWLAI
T4 sequence (Q01959 whole entry): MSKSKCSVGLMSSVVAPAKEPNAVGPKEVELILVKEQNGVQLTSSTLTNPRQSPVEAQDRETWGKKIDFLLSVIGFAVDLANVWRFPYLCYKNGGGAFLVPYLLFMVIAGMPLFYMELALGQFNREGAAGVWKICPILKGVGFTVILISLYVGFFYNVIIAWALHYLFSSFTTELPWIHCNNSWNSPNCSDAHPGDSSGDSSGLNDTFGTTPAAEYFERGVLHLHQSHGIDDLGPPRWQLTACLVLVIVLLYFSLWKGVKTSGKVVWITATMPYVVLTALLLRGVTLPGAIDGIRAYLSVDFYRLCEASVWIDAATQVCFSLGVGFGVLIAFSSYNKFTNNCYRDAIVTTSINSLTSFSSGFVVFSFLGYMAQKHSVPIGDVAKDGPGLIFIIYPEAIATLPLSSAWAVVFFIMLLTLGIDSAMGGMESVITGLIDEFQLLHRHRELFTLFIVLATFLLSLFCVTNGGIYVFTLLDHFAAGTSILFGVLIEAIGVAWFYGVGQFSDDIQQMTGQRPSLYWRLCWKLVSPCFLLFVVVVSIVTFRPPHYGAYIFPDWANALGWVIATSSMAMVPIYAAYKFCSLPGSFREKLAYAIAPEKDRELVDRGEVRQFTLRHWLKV

As to `CCN1CCC[C@@H]1CNC(=O)c1cc(S(=O)(=O)CC)c(N)cc1OC` [(R)-Amisulpride], in data set [1], half-maximal inhibition (IC50) was put at 9.4 µM. Also, in data set [1] (2 μM (S,S)-ethambutol), the “(S,S)-Ethambutol inhibition [%]” value is given as -5.7%. Besides, in data set [1] (2 μM ASP+), the “ASP+ inhibition [%]” value stood at 65.9%. In addition, the “N-Ethyllidocaine inhibition [%]” value in data set [1] (2 μM N-ethyllidocaine) was 11.3%. In addition, in data set [2] (setting [9]), the “Imax” value was 0.158 µM. Besides, the inhibition (in general, the change of the read-out against control, counted positive when it falls) at 5 min, 20 μM in data set [3] (setting [10]) was found to be 57.7%; in data set [3] (setting [11]), 25.2%; in data set [3] (setting [12]), 29.3%. Further, the inhibition at 20 µM in data set [4] (setting [13]) came out at 56%; in data set [4] (setting [14]), 81.3%; in data set [4] (setting [15]), 37.9%.

For the molecule `CN(C)CCC[C@]1(c2ccc(F)cc2)OCc2cc(C#N)ccc21` [(R)-Citalopram], the IC50 – broadly, the concentration that inhibits the measured activity by half – in data set [1] was 17.8 µM. For the same molecule, the inhibition at 5 min, 20 μM in data set [1] (setting [16]) worked out at 1.4%; in data set [1] (setting [17]) it was 52.1%; in data set [1] (setting [18]) it was 28.4%; in data set [3] (setting [10]), 72.8%; in data set [3] (setting [11]), 28.9%; in data set [3] (setting [12]), 78%. Moreover, the “Imax” value in data set [2] (setting [19]) was 0.228 µM. Also, the inhibition at 20 µM in data set [4] (setting [13]) turned out to be 11.8%; in data set [4] (setting [14]) it was 17.2%; in data set [4] (setting [15]) it was 4.5%.

In the case of `CCN1CCC[C@H]1CNC(=O)c1cc(S(=O)(=O)CC)c(N)cc1OC` [(S)-Amisulpride], the IC50 in data set [1] was 29.8 µM. Further, the “(S,S)-Ethambutol inhibition [%]” value was -13.2% in data set [1] (2 μM (S,S)-ethambutol); 51.7% in data set [3] (2 μM (S,S)-ethambutol); 73.1% in data set [4] (OCT3, 2 μM (S,S)-ethambutol). Moreover, the “ASP+ inhibition [%]” value is reported as 38.0% in data set [1] (2 μM ASP+); 23.5% in data set [3] (2 μM ASP+, mean of three experiments); 33.7% in data set [4] (OCT3, 2 μM ASP+). In data set [1] (2 μM N-ethyllidocaine), the “N-Ethyllidocaine inhibition [%]” value is reported as 1.9%. Besides, the selectivity ratio at 5 min in data set [1] (human, OCT2-overexpressing HEK293 cells, pH 7.4) is 3.2. Moreover, in data set [2] (setting [9]), the “Imax” value is 0.182 µM. Further, the “Sumatriptan inhibition [%]” value in data set [3] (2 μM sumatriptan) is listed as 15.2%. Besides, the “(S)-Zolmitriptan inhibition [%]” value in data set [4] (OCT3, 2 μM (S)-zolmitriptan) stood at 46.0%.

For the molecule `CN(C)CCC[C@@]1(c2ccc(F)cc2)OCc2cc(C#N)ccc21` [(S)-Citalopram], in data set [1], the IC50 came out at 10.7 µM. In addition, the inhibition at 5 min, 20 μM was -9.7% in data set [1] (setting [16]); 68.6% in data set [1] (setting [17]); 26.5% in data set [1] (setting [18]); 80.1% in data set [3] (setting [10]); 37.2% in data set [3] (setting [11]); 77.6% in data set [3] (setting [12]). Further, the “Imax” value in data set [2] (setting [19]) was 0.154 µM. In addition, the inhibition at 20 µM in data set [4] (setting [13]) was 19.2%; in data set [4] (setting [14]) it was 31.7%; in data set [4] (setting [15]) it was 10.9%.

In the case of `C[n+]1ccc(-c2ccccc2)cc1` [MPP+, 1-methyl-4-phenylpyridinium], the “vmax ± SEM [pmol × mg Protein−1 × min−1]” value in data set [5] was 2107 pmol × mg Protein−1 × min−1; in data set [6], 627 pmol × mg Protein−1 × min−1; in data set [7], 381 pmol × mg Protein−1 × min−1. The Km (usually the substrate concentration at which the rate is half of its maximum) was 20.1 µM in data set [5] (read-out: Km ± SEM), 21.1 µM in data set [6] (read-out: Km ± SEM) and 2.5 µM in data set [7] (read-out: Km ± SEM). The “Clint ± SEM” value turned out to be 104 in data set [5] (vmax over Km), 29.7 in data set [6] (vmax over Km) and 152 in data set [7] (vmax over Km).

B1: OCT1 (Homo sapiens) (protein)
chain: T2 sequence (O15245 1-554)
As to B1, in data set [8], the Michaelis-Menten constant (Km) stood at 167 µM and the Vmax (in general, the rate approached at saturating substrate) amounted to 0.00235 µmol/min/mg.
